Experimental data published in US20240368181A1, “QUINOXALINE DERIVATIVES AND USES THEREOF” (Black Diamond Therapeutics, Inc., priority 2021, published 2024).

What was measured:
Type in all cases: cell-based
[1] = test system: UM-UC-14 (FGFR3-S249C) cells; test: cell proliferation assay (CellTiterGlo), UM-UC-14 cells
Description: (§1) In some embodiments, the biological assay assess the ability of the compounds to inhibit cell proliferation.
(§2) In some embodiments, cells (e.g., SNU-16 (FGFR2-amplification) cells) may be suspended and dispensed in plates. In some embodiments, cells (e.g., UM-UC-14 (FGFR3-S249C) cells) may be suspended and dispensed in plates. In some embodiments, cells (e.g., DMS-114 (FGFR1 overexpression) cells) may by suspended and dispensed in plates. In some embodiments, cells (e.g., RT-112 (FGFR3-Tacc3 fusion) cells) may be suspended and dispensed in plates. In some embodiments, to determine the effect of the compounds of the present disclosure on cell proliferation, cells (e.g., SNU-16, UM-UC-14, DMS-114 and […] cells) may be incubated in the presence of vehicle control (e.g., DMSO) or a compound of the present disclosure at varying concentrations and the inhibition of cell growth may be determined by luminescent quantification (e.g., of intracellular ATP content using CellTiterGlo), according to the manufacturers protocol. In some embodiments, to determine the IC50 values, the vehicle-treated cells were normalized as viable cells and the growth was analyzed using a software (e.g., the CDD Vault software (Collaborative Drug Discovery, Burlingame, CA)).

[2] = test system: RT-112 (FGFR3-Tacc3 fusion) cells; test: cell proliferation assay (CellTiterGlo), RT-112 cells; conditions: 72 hours
Description: as §1, §2

[3] = test system: SNU-16 (FGFR2-amplification) cells; test: cell proliferation assay (CellTiterGlo), SNU-16 cells; conditions: 72 hours
Description: as §1, §2

[4] = test system: DMS-114 (FGFR1 overexpression) cells; test: cell proliferation assay (CellTiterGlo), DMS-114 cells
Description: as §1, §2

[5] = Homo sapiens, RT-112, RT112 cells

SMILES | IC50 ([1]; UMUC14, 72 h) | IC50 [2, 5] | IC50 ([3]; Homo sapiens) | IC50 ([4]; Homo sapiens, DMS-114, 72 h) | IC50 ([4]; 72 hours) | IC50 ([1]; 72 hours) | IC50 ([2]; RT112 cells) | IC50 [3]
Cc1nc2ccc(Oc3ccc4ncc(-c5cnn(CC6CC(F)(F)C6)c5)nc4c3C3COC3)cc2[nH]1 [Compound 97] | 100 to 400 nM | 100 to 400 nM | 20 to 100 nM | ≥ 400 nM |  |  |  | 
CC(=O)NC1(Cn2cc(-c3cnc4ccc(Oc5ccc6nc(C)[nH]c6c5)c(Cl)c4n3)cn2)CC1 [Compound 98] | ≥ 400 nM | 100 to 400 nM | 100 to 400 nM | ≥ 400 nM |  |  |  | 
Cc1nc2ccc(Oc3ccc4ncc(-c5cnn(CC6(NS(C)(=O)=O)CC6)c5)nc4c3Cl)cc2[nH]1 [Compound 99] | ≥ 400 nM | 100 to 400 nM | 100 to 400 nM | ≥ 400 nM |  |  |  | 
Cc1nc2ccc(Oc3ccc4ncc(-c5cnn(CC6CC(F)(F)C6)c5)nc4c3C3=CCOCC3)cc2[nH]1 [Compound 100] | 20 to 100 nM | < 20 nM | 20 to 100 nM | 100 to 400 nM |  |  |  | 
Cc1nc2ccc(Oc3ccc4ncc(-c5cnn([C@@H](C)CO)c5)nc4c3Cl)c(F)c2[nH]1 [Compound 106] | < 20 nM | < 20 nM | < 20 nM | 100 to 400 nM |  |  |  | 
Cc1nc2ccc(Oc3ccc4ncc(-c5cnn([C@H](C)CO)c5)nc4c3Cl)c(F)c2[nH]1 [Compound 107] | < 20 nM | < 20 nM | < 20 nM | 100 to 400 nM |  |  |  | 
Cc1nc2ccc(Oc3ccc4ncc(-c5cnn([C@@H](C)C6CC(F)(F)C6)c5)nc4c3Cl)c(F)c2[nH]1 [Compound 108] | 20 to 100 nM | 20 to 100 nM | < 20 nM | 100 to 400 nM |  |  |  | 
Cc1nc2ccc(Oc3ccc4ncc(-c5cnn([C@H](C)C6CC(F)(F)C6)c5)nc4c3Cl)c(F)c2[nH]1 [Compound 109] | < 20 nM | < 20 nM | < 20 nM | 100 to 400 nM |  |  |  | 
COC1(Cn2cc(-c3cnc4ccc(Oc5ccc6nc(C)[nH]c6c5)c(Cl)c4n3)cn2)CC1 [Compound 110] | 20 to 100 nM | 20 to 100 nM | 20 to 100 nM | ≥ 400 nM |  |  |  | 
Cc1nc2ccc(Oc3ccc4ncc(-c5cnn(Cc6nnc(C)o6)c5)nc4c3Cl)cc2[nH]1 [Compound 111] | 20 to 100 nM | 20 to 100 nM | 20 to 100 nM | ≥ 400 nM |  |  |  | 
COC(=O)C(C)(C)n1cc(-c2cnc3ccc(Oc4ccc5nc(C)[nH]c5c4F)c(Cl)c3n2)cn1 [Compound 112] | < 20 nM | 20 to 100 nM | < 20 nM | 100 to 400 nM |  |  |  | 
Cc1nc2ccc(Oc3ccc4ncc(-c5cnn(C(C)(C)C(=O)O)c5)nc4c3Cl)c(F)c2[nH]1 [Compound 115] | ≥ 400 nM | ≥ 400 nM | ≥ 400 nM | ≥ 400 nM |  |  |  | 
Cc1nc2ccc(Oc3ccc4ncc(-c5cnn(C[C@H](C)O)c5)nc4c3Cl)cc2[nH]1 [Compound 119] | < 20 nM | 20 to 100 nM | 20 to 100 nM | 100 to 400 nM |  |  |  | 
Cc1nc2ccc(Oc3ccc4ncc(-c5cnn(C6CCN(CC(F)(F)F)C7(CC7)C6)c5)nc4c3Cl)c(F)c2[nH]1 (stereo not drawn) [Compound 121] | 20 to 100 nM | 20 to 100 nM | 20 to 100 nM | ≥ 400 nM |  |  |  | 
Cc1nc2ccc(Oc3ccc4ncc(-c5cnn(CC(C)(O)C(F)(F)F)c5)nc4c3Cl)c(F)c2[nH]1 (stereo not drawn) [Compound 122] | 20 to 100 nM | 20 to 100 nM | 20 to 100 nM | ≥ 400 nM |  |  |  | 
Cc1nc2ccc(Oc3ccc4ncc(-c5cnn([C@H]6CC7(C[C@@H](O)C7)C6)c5)nc4c3Cl)cc2[nH]1 (stereo partly drawn) [Compound 123] | < 20 nM | 20 to 100 nM | 20 to 100 nM |  | 100 to 400 nM |  |  | 
Cc1nc2ccc(Oc3ccc4ncc(-c5cnn([C@H]6CC7(C[C@@H](O)C7)C6)c5)nc4c3Cl)cc2[nH]1 (stereo partly drawn) [Compound 124] |  |  |  |  | ≥ 400 nM | 20 to 100 nM | 20 to 100 nM | 20 to 100 nM

SMILES | IC50 ([1]; UMUC14, 72 h) | IC50 [2, 5] | IC50 ([3]; Homo sapiens) | IC50 ([4]; Homo sapiens, DMS-114, 72 h) | IC50 ([4]; 72 hours) | IC50 ([1]; 72 hours) | IC50 ([2]; RT112 cells) | IC50 [3]
Cc1nc2ccc(Oc3ccc4ncc(-c5cnn([C@H](C)CO)c5)nc4c3Cl)cc2[nH]1 [Compound 126] | 20 to 100 nM | 20 to 100 nM | 20 to 100 nM | 100 to 400 nM |  |  |  | 
Cc1nc2ccc(Oc3ccc4ncc(-c5cnn([C@H]6CC7(C[C@@H](O)C7)C6)c5)nc4c3Cl)c(F)c2[nH]1 (stereo partly drawn) [Compound 127] | < 20 nM | < 20 nM | < 20 nM | 100 to 400 nM |  |  |  | 
Cc1nc2ccc(Oc3ccc4ncc(-c5cnn([C@H]6CC7(C[C@@H](O)C7)C6)c5)nc4c3Cl)c(F)c2[nH]1 (stereo partly drawn) [Compound 128] |  |  |  |  | 100 to 400 nM | < 20 nM | < 20 nM | < 20 nM
Cc1nc2ccc(Oc3ccc4ncc(-c5cnn(C[C@@H](C)O)c5)nc4c3Cl)c(F)c2[nH]1 [Compound 130] | < 20 nM | < 20 nM | < 20 nM | 100 to 400 nM |  |  |  | 
Cc1nc2ccc(Oc3ccc4ncc(-c5cnn(CC(C)(C)O)c5)nc4c3Cl)c(F)c2[nH]1 [Compound 131] | < 20 nM | < 20 nM | < 20 nM | 100 to 400 nM |  |  |  | 
Cc1nc2ccc(Oc3ccc4ncc(-c5cnn(C6CCNC7(CC7)C6)c5)nc4c3Cl)c(F)c2[nH]1 (stereo not drawn) [Compound 139] | 20 to 100 nM | < 20 nM | < 20 nM | 20 to 100 nM |  |  |  | 
Cc1nc2ccc(Oc3ccc4ncc(-c5cnn(CC6(O)CCC6)c5)nc4c3Cl)c(F)c2[nH]1 [Compound 140] | 20 to 100 nM | 20 to 100 nM | 20 to 100 nM | ≥ 400 nM |  |  |  | 
Cc1nc2ccc(Oc3ccc4ncc(-c5cnn(C(=O)OC(C)C)c5)nc4c3Cl)c(F)c2[nH]1 [Compound 141] | 100 to 400 nM | 100 to 400 nM | 20 to 100 nM | ≥ 400 nM |  |  |  | 
Cc1nc2ccc(Oc3ccc4ncc(-c5cnn([C@H]6C[C@H](O)C6)c5)nc4c3Cl)c(F)c2[nH]1 [Compound 143] | ≥ 400 nM | 100 to 400 nM | 100 to 400 nM | ≥ 400 nM |  |  |  | 
Cc1nc2ccc(Oc3ccc4ncc(-c5cnn(CC(O)C(F)(F)F)c5)nc4c3Cl)c(F)c2[nH]1 (stereo not drawn) [Compound 144] | ≥ 400 nM | 100 to 400 nM | 20 to 100 nM | ≥ 400 nM |  |  |  | 
Cc1nc2ccc(Oc3ccc4ncc(-c5cnn(Cc6ncc7n6CCOC7)c5)nc4c3Cl)c(F)c2[nH]1 [Compound 145] | ≥ 400 nM | 100 to 400 nM | 20 to 100 nM | ≥ 400 nM |  |  |  | 
Cc1nc2ccc(Oc3ccc4ncc(-c5cnn(CC6(O)CCC6)c5)nc4c3Cl)cc2[nH]1 [Compound 146] | 20 to 100 nM | 20 to 100 nM | 20 to 100 nM | ≥ 400 nM |  |  |  | 
Cc1nc2ccc(Oc3ccc4ncc(-c5cnn(C(C)(C)C6CC(F)(F)C6)c5)nc4c3Cl)cc2[nH]1 [Compound 147] | 100 to 400 nM | 20 to 100 nM | 100 to 400 nM | ≥ 400 nM |  |  |  | 
Cc1nc2ccc(Oc3ccc4ncc(-c5cnn([C@H]6C[C@@H](O)C6)c5)nc4c3Cl)c(F)c2[nH]1 [Compound 148] | < 20 nM | < 20 nM | < 20 nM | 20 to 100 nM |  |  |  | 
Cc1nc2ccc(Oc3ccc4ncc(-c5cnn([C@H]6C[C@](C)(O)C6)c5)nc4c3Cl)c(F)c2[nH]1 [Compound 149] | < 20 nM | < 20 nM | < 20 nM | 100 to 400 nM |  |  |  | 
Cc1nc2ccc(Oc3ccc4ncc(-c5cnn(C(C)(C)C6CC(=O)C6)c5)nc4c3Cl)cc2[nH]1 [Compound 150] | 20 to 100 nM | 20 to 100 nM | 20 to 100 nM | ≥ 400 nM |  |  |  | 
